# Where two headings read alike, the source gives them in different places.
# Tests used:
# Sprague-Dawley rats [1] = assay: Rat loss of righting reflexes; settings: intravenous, dose producing LORR in 50% of rats
# Sprague-Dawley rats [2] = settings: previously published value; cited from earlier work
# [3] = previously published value; cited from earlier work
# [4] = Octanol:water partition coefficient determination; format: physicochemical; settings: mean ± SD
# [5] = molecular target: α1(L264T)β3γ2 GABAA receptors (Homo sapiens, UniProt P14867+P28472, L291T); format: cell-based; settings: for Peak amplitude of evoked current: representative trace, single oocyte
# α1(L264T)β3γ2 GABAA receptors, sequence (P14867 28-456 L291T): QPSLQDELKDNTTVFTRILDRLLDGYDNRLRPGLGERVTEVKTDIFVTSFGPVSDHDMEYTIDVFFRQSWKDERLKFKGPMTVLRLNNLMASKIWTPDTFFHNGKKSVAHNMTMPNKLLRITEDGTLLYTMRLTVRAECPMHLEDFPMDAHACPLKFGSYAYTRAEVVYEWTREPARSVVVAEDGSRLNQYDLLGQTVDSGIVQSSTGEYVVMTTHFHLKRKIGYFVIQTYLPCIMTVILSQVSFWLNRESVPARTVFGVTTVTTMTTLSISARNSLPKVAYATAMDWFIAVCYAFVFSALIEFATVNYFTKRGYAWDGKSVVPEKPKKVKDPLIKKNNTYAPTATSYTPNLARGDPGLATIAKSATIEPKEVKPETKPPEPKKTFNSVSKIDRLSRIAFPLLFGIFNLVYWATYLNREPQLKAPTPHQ
# α1(L264T)β3γ2 GABAA receptors, sequence (P28472 26-473): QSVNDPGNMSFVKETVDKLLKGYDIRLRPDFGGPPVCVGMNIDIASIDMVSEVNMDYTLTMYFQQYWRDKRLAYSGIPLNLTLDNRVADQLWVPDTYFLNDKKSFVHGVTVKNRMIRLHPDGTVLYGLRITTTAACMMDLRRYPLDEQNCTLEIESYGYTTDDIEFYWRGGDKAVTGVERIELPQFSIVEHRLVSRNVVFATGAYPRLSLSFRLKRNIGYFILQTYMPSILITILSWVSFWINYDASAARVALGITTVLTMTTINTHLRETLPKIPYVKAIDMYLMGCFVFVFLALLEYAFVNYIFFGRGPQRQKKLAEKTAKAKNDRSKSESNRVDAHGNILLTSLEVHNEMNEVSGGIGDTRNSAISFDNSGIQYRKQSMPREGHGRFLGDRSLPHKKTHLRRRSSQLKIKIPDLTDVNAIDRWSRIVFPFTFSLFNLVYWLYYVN
# α1(L264T)β3γ2 GABAA receptors, sequence (P18507 40-475 partner): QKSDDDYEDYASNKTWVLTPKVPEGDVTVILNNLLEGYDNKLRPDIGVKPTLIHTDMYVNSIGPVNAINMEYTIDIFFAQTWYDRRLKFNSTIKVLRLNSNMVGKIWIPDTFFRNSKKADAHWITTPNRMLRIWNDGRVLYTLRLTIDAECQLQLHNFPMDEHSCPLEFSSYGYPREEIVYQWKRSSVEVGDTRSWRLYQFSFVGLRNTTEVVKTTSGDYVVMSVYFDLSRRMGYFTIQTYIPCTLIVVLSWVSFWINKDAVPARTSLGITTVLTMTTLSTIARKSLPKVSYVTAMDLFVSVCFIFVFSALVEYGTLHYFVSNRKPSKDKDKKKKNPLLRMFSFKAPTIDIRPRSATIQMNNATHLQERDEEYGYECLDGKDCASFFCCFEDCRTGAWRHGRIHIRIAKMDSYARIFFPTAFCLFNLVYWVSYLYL
Compound,Hypnotic ED50 (loss of righting reflexes) (Sprague-Dawley rats [2]),Octanol:Buffer Partition Coefficient [3],also measured
4-Pyridine carboetomidate [Compound 7],,,Hypnotic ED50 (loss of righting reflexes) (Sprague-Dawley rats [1]): 25.0 ± 0.3 mg/kg
"CCOC(=O)c1cncn1[C@H](C)c1ccccc1 [Compound 1, Etomidate, reference compound]",0.47 ± 0.17 (13) mg/kg,731 ± 72 (13),
"COC(=O)c1cncn1C(C)c1ccccc1 (centres unmarked) [Compound 2, Metomidate, reference compound]",,,Octanol:Buffer Partition Coefficient [4]: 380 ± 48; EC50 [5]: 4.4 ± 0.7 µM
"CCOC(=O)c1cncn1[C@@H](C)c1ccccc1 [Compound 3, S-etomidate]",5.2 ± 0.9 (13) mg/kg,711 ± 90 (13),
"CCOC(=O)c1cncn1Cc1ccccc1 [Compound 4, Dihydrogen etomidate]",5.2 ± 1 (13) mg/kg,388 ± 32 (13),
"CCOC(=O)c1cncn1C1(c2ccccc2)CC1 [Compound 5, Cyclopropyletomidate]",5.2 ± 0.7 (13) mg/kg,458 ± 45 (13),
"CCOC(=O)c1cccn1[C@H](C)c1ccccc1 [Compound 6, Carboetomidate]",7.7 ± 0.8 (18) mg/kg,"15,000 ± 3,700 (20)","Potency relative to 4-pyridine carboetomidate ([5]; fold higher GABAA receptor potency): 24 fold; GABAA receptors activated at the highest concentration studied (at most) ([5]; normalized to 100 μM GABA, limited by aqueous solubility): ≤ 68 ± 6%; Potency for directly activating GABAA receptors relative to etomidate ([5]; ratio of EC50s): approximately 1/8"
"COC(=O)COC(=O)c1cncn1[C@H](C)c1ccccc1 [Compound 11, Methoxycarbonyl metomidate]",11.1 ± 0.8 (19) mg/kg,159 ± 15 (19),
"COC(=O)[C@H](C)OC(=O)c1cncn1[C@H](C)c1ccccc1 [Compound 12, S-methyl-methoxycarbonyl metomidate]",3.5 ± 0.4 (19) mg/kg,330 ± 16 (19),
"COC(=O)[C@@H](C)OC(=O)c1cncn1[C@H](C)c1ccccc1 [Compound 13, R-methyl-methoxycarbonyl metomidate]",9.6 ± 1.9 (19) mg/kg,380 ± 15 (19),
"COC(=O)C(C)(C)OC(=O)c1cncn1[C@H](C)c1ccccc1 [Compound 14, Dimethyl-methoxycarbonyl metomidate]",0.72 ± 0.16 (19) mg/kg,660 ± 110 (19),
"COC(=O)CCOC(=O)c1cncn1[C@H](c1ccccc1)C(C)C [Compound 16, (S)-isopropyl-methoxycarbonyl metomidate]",1.2 ± 0.2 (19) mg/kg,"2,860 ± 67 (19)",Peak amplitude of evoked current ([5]; 1 μM): 0.29 μA; Peak amplitude of evoked current ([5]; 10 μM): 0.90 μA
"COC(=O)CCOC(=O)c1cncn1[C@@H](c1ccccc1)C(C)C [Compound 17, (R)-isopropyl-methoxycarbonyl metomidate]",3.6 ± 0.8 (19) mg/kg,"3,830 ± 310 (19)",Peak amplitude of evoked current ([5]; 1 μM): 0.041 μA
"COC(=O)CCOC(=O)c1cncn1[C@H](C)c1ccccc1 [Compound 18, Methoxycarbonyl etomidate]",5.3 ± 1.5 (19) mg/kg,190 ± 25 (19),
"COC(=O)[C@@H](C)COC(=O)c1cncn1[C@H](C)c1ccccc1 [Compound 19, α-(S)-methyl methoxycarbonyl etomidate]",3.1 ± 0.4 (19) mg/kg,530 ± 170 (19),
"COC(=O)[C@H](C)COC(=O)c1cncn1[C@H](C)c1ccccc1 [Compound 20, α-(R)-methyl-methoxycarbonyl etomidate]",5.2 ± 0.5 (19) mg/kg,670 ± 120 (19),
"COC(=O)C(C)(C)COC(=O)c1cncn1[C@H](C)c1ccccc1 [Compound 21, α-Dimethyl-methoxycarbonyl etomidate]",2.4 ± 1 (19) mg/kg,"2,240 ± 150 (19)",
"COC(=O)C[C@@H](C)OC(=O)c1cncn1[C@H](C)c1ccccc1 [Compound 22, β-(R)-methyl-methoxycarbonyl etomidate]",3.5 ± 0.6 (19) mg/kg,500 ± 24 (19),
"COC(=O)CC(C)(C)OC(=O)c1cncn1C(C)c1ccccc1 (stereo not drawn) [Compound 23, β-Dimethyl-methoxycarbonyl etomidate]",1.9 ± 0.3 (19) mg/kg,"1,580 ± 40 (19)",
Cyclopropyl methoxycarbonyl metomidate [Compound 15],0.69 ± 0.04 (19) mg/kg,420 ± 11 (19),
Racemic pentafluoroetomidate [Compound 8],,,Octanol:Buffer Partition Coefficient [4]: 860 ± 260; Hypnotic ED50 (loss of righting reflexes) (Sprague-Dawley rats [1]): 1.7 ± 0.4 mg/kg
S-pentafluoroetomidate [Compound 9],,,Octanol:Buffer Partition Coefficient [4]: 880 ± 220; EC50 of S-enantiomer relative to racemic mixture ([5]; fold higher EC50): 22 fold; Hypnotic ED50 (loss of righting reflexes) (Sprague-Dawley rats [1]): 11.1 ± 0.8 mg/kg

# — paper PMC4803471 (Anesthesiology, 2016)
